We go through 3 compounds from paper PMC11062899, “De novo development of small cyclic peptides that are orally bioavailable” (Nature Chemical Biology, 2023).

Square brackets hold non-standard residues; d marks the D form. Peptide text beside a SMILES is read from it. NMeY = CN[C@@H](Cc1ccc(O)cc1)C(=O)O; NMeL = CN[C@@H](CC(C)C)C(=O)O; dNMeL = CN[C@H](CC(C)C)C(=O)O

On the set-up of series [1]: method as in PMID 19696042. The conditions noted are these: cited from earlier work.
The conditions of series [2]: cited from earlier work.
Series [3] in a line: Metabolic stability in rat liver microsomes (RLMs). The conditions noted are these: rat liver microsomes; for half-life at 10 μM / microsomal CLint at 10 μM: rat. A general note: Liver microsomes are vesicles of endoplasmic reticulum, rich in cytochrome P450 enzymes.
A further series deals with T1, porcine pepsin (Sus scrofa, UniProt P00791).
T1 construct: 0.32 g of porcine pepsin (Sigma-Aldrich, P7125) was dissolved under gentle agitation; purchased Sigma-Aldrich P7125
T1 sequence (P00791 60-385): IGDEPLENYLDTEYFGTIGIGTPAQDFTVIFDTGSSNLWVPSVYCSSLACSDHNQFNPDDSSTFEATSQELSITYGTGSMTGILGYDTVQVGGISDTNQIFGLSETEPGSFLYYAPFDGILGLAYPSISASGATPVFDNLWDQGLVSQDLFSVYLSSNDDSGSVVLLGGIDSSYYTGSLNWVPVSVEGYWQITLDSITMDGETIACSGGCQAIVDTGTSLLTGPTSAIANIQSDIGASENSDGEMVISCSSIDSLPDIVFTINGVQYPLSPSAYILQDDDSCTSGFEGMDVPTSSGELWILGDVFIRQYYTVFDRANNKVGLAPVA
The series can be described thus: Peptide stability in simulated gastric fluid (SGF). The format is in vitro ADME. The conditions noted are these: pig, simulated gastric fluid (SGF) with porcine pepsin; 8 h, 37 °C, pH 1.2; read-out: Proteolytic stability: SGF (8 h) % remaining. Also on record: remaining at 8 h: dose or concentration left out as unconfirmed. In short, it runs like this:
(§1)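 Peptide from a 1 mM DMSO stock was added to fluid pre-warmed at 37 °C. SGF was pH 1.2 NaCl with porcine pepsin (0.32 g per 100 ml), and SIF was pH 6.8 potassium phosphate with porcine pancreatin (1 g per 100 ml). Supernatant peptide was quantified by LC–MS, with residual expressed as T1/T0.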

For another series, the system named is porcine pancreatin. The series can be described thus: Peptide stability in simulated intestinal fluid (SIF). The conditions noted are these: pig, simulated intestinal fluid (SIF) with porcine pancreatin; 8 h, 37 °C, pH 6.8; read-out: Proteolytic stability: SIF (8 h) % remaining. On the set-up: remaining at 8 h: dose or concentration left out as unconfirmed. The class given is in vitro ADME. In short, it runs like this: as §1

A short description of a further series: in vivo. The note with it: male, Wistar Han, rat. How it is done: Male Wistar Han rats (250–350 g) obtained at an age of 9–10 weeks from Charles River Laboratories were used for the studies and kept in housing groups of two or three. Experiments were performed at the age of 10–11 weeks. Intravenous (i.v.) administrations were carried out using tail vein injections. Peptides were dissolved in pure DMSO and diluted with 5% Cremophor EL in water (5% DMSO final) at a concentration of 0.5 mg ml^−1. I.v. administration was carried out at a dose of 1 mg kg^−1 body weight via the left lateral tail vein of rats (n = 3) using an Insyte-W 24 G × 0.75 in. (0.7 mm × 19 mm) temporary peripheral venous catheter (BD Biosciences, 381312). Before injecting the peptide solution, a correct placement of the catheter was confirmed by an apparent reflux of blood through the catheter. Orally (p.o.) administrated peptides were dissolved in DMSO and diluted with 10% Cremophor EL in water (5% DMSO final) at a concentration of 1 mg ml^−1 and administrated by oral gavage to rats (n = 3) at a dose of 10 mg kg^−1. Rats used for oral administration were fasted overnight for 14 h and provided access to food again 2 h after administration, whereas access to water was not restricted throughout the whole experimental procedure. Volumes of 100 μl of blood samples were collected via the right lateral tail vein at different timepoints after i.v. or p.o. administration into heparinized tubes (Sarstedt, 20.1282); the samples were stored on ice for up to 4 h; and plasma was obtained by centrifugation at 2,000g for 5 min at 4 °C. A volume of 40 μl of plasma was added to 120 μl of an acetonitrile:water (9:1) solution containing an internal standard (5 μg ml^−1). Samples were vortexed for 10 s and sonicated for 10 min, and precipitated plasma proteins were pelleted by centrifugation at 16,000g for 15 min at 4 °C. Volumes of 120 μl of supernatant were transferred to a new tube, and solvent was evaporated in a rotary vacuum concentrator (RVC 2–33 CDplus IR, Christ) for 2 h at 40 °C. Dried residues were dissolved in 20 μl of a water:acetonitrile (7:3) (v/v) solution, centrifuged at 14,000g for 5 min and analyzed by LC–MS. Peptides were quantified by extracting ion chromatograms corresponding to their respective mass, integrating the area under the peptide peak and calculating the concentrations by normalization to a calibration curve. Calibration curves were prepared by analyzing spiked samples of blood or plasma with known concentrations of peptide. The absolute oral bioavailability was calculated using equation (6).6 F=AUCp.o./AUCi.v.×Dosei.v./Dosep.o.×100 where AUCp.o. and AUCi.v. are calculated from a plasma concentration versus time curve using the linear trapezoidal rule, and Dosei.v. and Dosep.o. are the intravenously or orally administrated amount of peptide in mg kg^−1.

[4] abbreviates: pH 7.4, Metabolic stability: Half life T1/2 (min), RLMs, mean and SD, three measurements.
The mark [5] stands for this setting: pH 7.4, Metabolic stability: RLM CL (ul/min/mg), RLMs, mean and SD, three measurements.

Turning to `CCCCCCOC(=O)NC(=N)c1ccc(NCc2nc3cc(C(=O)N(CCC(=O)OCC)c4ccccn4)ccc3n2C)cc1` [dabigatran etexilate], the oral availability in series [1] was 6.5%.
For the compound `COc1ccc([C@@H]2Sc3ccccc3N(CCN(C)C)C(=O)[C@@H]2OC(C)=O)cc1` [Diltiazem, diltiazem, reference compound], in series [2], the “metabolic clearance in humans” value is “around 15 ml min^−1 kg^−1”. Further, in series [3] (individual replicates R1-R3), the “Half Life” value turned out to be 12.36 min. In addition, the “RLM CL” value in series [3] (individual replicates R1-R3, incubation volume 400 ul, protein 0.5 mg/ml) turned out to be 112.14 ul/min/mg protein. The half-life (as a rule, how long it takes for the measured level to halve) at 10 μM in series [3] (pH 7.4, Half Life Mean, mean of R1-R3) stood at 13.4 min; in series [3] (pH 7.4, Half Life, individual replicates R1-R3), 14.9 min; in series [3] (setting [4]), 13.4 ± 1.1 min. Besides, the microsomal CLint (as a rule, a measure of how fast metabolising enzymes remove a compound, apart from limits set by blood flow) at 10 μM amounted to 104 ± 8 µL/min/mg in series [3] (setting [5]); 104 µL/min/mg in series [3] (pH 7.4, RLM CL Mean, mean of R1-R3); 93 µL/min/mg in series [3] (pH 7.4, RLM CL, individual replicates R1-R3, incubation volume 400 ul, protein 0.5 mg/ml).
`CC(C)C[C@@H]1NC(=O)[C@H](Cc2ccc(O)cc2)N(C)C(=O)[C@H]2CCCN2C(=O)[C@H](CC(C)C)NC(=O)[C@H](CC(C)C)N(C)C(=O)[C@@H](CC(C)C)N(C)C1=O` [1NMe3, reference compound] (cyclo(L[dNMeL][NMeL]L[dP][NMeY])): the figures for the amount remaining at 8 h at porcine pepsin and in the series with porcine pancreatin were 93 ± 12% and 98 ± 6%, respectively. Also, the bioavailability (usually the share of a dose that reaches the circulation, judged against a reference dose that is usually intravenous) in the series “in vivo” came out at 27 ± 4%. This compound had a half-life in “in vivo” (iv) of 110 min. For the same compound, the half-life at 10 μM in series [3] (setting [4]) worked out at 193 ± 42 min. Also, in series [3] (setting [5]), the microsomal CLint at 10 μM was determined as 7.6 ± 1.9 µL/min/mg.
